Assay results as given in US20220370465A1, “TREATMENT OF MAST CELL DISEASES AND EOSINOPHILIC DISORDERS” (Blueprint Medicines Corporation, priority 2019, published 2022).

Experiments:
[1] = test system: tyrosine kinase inhibitor (TKI)-resistant mastocytoma model; test: TKI-resistant mastocytoma model in vivo
[2] = test system: mast cells; test: Mast cell activation, proliferation and survival; assay type: cell-based
Text: In a specific embodiment, the D816 mutation is D816V. In another specific embodiment, the D816 mutation is D816Y. […] In some embodiments, the inhibition is in a dose-dependent manner. […] Current treatment paradigms for mast cell diseases focus on inhibiting individual mast cell mediators for symptom control (anti-histamines, anti-IgE antibodies, etc.), or on using KIT exon 17 inhibitors in KIT mutant mMCAS.

With Cn1cc(-c2cc3c(N4CCN(c5ncc([C@@](C)(N)c6ccc(F)cc6)cn5)CC4)ncnn3c2)cn1 [Compound (I), (5)-1-(4-fluorophenyl)-1-(2-(4-(6-(1-methyl-1H-pyrazol-4-yl)pyrrolo[2,1-f][1,2,4]triazin-4-yl)piperazin-yl)pyrimidin-5-yl)ethan-1-amine] as the compound, how does the “growth inhibition in mastocytoma model” value [1] read?
The value was “robust growth inhibition”.

And the mast cell activation [2]?
The mast cell activation was “inhibits mast cell activation”.

What about the mast cell proliferation [2] of the same compound?
Its mast cell proliferation is “inhibits mast cell proliferation”.

What about the “survival of mast cells” value [2] of the same compound?
The value was “does not interfere with the survival of mast cells”.
